Results published in the supplement of paper PMC12463676, “Small-molecule dissolution of stress granules by redox modulation benefits ALS models” (Nature Chemical Biology, 2025).

Legend:
lipoamide = compound: NC(=O)CCCCC1CCSS1 [lipoamide]; assay: thermal stability z-score vs DMSO; higher = more thermally stabilized by treatment; details: HeLa, lipoamide concentration 100 µM
Description: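 Cellular thermal proteome profiling in HeLa cells. Cells were treated with 100 µM lipoamide for 1 h, with or without 1 mM arsenate for a further 1 h, then heated to ten temperatures (37-66.3 °C), and soluble protein was quantified by TMT mass spectrometry relative to 0.1% DMSO controls. The thermal stability score (sum of log2 fold changes minus the abundance score) was transformed to a z-score; mean of n = 3 experiments.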

potassium arsenate = compound: O=[As]([O-])(O)O.[K+] [potassium arsenate]; assay: as above; details: HeLa; arsenate concentration 1 mM
Description: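 Cellular thermal proteome profiling in HeLa cells treated with 1 mM arsenate for 1 h (DMSO pretreatment), heated to ten temperatures (37-66.3 °C). Soluble protein was quantified by TMT mass spectrometry relative to DMSO controls; the thermal stability score was transformed to a z-score; mean of n = 3 experiments.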

[1] = arsenate co-treatment: 1 mM arsenate 1 h
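Further: each temperature applied for 3 min, abundance score taken as mean log2 fold change at the two lowest temperatures, z-score obtained by mean subtraction and division by SD.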

UniProt O15013, sequence (O15013 whole entry): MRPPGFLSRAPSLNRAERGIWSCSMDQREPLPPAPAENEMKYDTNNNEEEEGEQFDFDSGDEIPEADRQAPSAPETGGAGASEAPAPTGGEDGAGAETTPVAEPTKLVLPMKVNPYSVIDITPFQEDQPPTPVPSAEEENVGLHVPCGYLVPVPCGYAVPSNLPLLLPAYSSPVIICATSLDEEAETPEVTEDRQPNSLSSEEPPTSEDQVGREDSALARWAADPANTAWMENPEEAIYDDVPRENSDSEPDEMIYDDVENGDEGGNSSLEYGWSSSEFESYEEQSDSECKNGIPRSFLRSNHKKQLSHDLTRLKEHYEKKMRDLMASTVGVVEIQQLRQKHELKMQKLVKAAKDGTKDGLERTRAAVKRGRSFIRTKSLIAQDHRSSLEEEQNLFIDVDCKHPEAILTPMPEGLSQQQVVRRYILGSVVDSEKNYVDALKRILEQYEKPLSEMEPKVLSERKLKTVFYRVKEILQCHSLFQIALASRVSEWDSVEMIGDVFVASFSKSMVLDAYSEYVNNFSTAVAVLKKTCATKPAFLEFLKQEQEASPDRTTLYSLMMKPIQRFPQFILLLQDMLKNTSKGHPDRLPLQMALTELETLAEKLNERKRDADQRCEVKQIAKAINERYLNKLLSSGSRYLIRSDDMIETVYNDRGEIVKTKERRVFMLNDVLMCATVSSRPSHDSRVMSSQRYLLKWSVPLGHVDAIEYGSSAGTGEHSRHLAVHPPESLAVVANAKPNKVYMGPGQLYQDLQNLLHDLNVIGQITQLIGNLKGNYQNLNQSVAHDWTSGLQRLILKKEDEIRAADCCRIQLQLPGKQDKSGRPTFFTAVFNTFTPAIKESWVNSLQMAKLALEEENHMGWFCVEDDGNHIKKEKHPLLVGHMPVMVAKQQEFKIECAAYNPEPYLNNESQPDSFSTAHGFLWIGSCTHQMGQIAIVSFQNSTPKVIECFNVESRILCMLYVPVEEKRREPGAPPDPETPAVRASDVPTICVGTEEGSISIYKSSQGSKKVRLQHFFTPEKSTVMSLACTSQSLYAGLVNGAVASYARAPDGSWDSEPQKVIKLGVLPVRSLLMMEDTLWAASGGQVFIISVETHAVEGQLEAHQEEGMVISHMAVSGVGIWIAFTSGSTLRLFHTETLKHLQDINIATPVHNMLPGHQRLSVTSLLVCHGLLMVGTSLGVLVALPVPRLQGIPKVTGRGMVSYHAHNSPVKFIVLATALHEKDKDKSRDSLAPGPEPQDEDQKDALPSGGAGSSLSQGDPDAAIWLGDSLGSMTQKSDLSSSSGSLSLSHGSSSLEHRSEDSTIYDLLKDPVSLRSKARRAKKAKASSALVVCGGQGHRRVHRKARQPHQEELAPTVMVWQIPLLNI
UniProt Q9Y4X5, sequence (Q9Y4X5 whole entry): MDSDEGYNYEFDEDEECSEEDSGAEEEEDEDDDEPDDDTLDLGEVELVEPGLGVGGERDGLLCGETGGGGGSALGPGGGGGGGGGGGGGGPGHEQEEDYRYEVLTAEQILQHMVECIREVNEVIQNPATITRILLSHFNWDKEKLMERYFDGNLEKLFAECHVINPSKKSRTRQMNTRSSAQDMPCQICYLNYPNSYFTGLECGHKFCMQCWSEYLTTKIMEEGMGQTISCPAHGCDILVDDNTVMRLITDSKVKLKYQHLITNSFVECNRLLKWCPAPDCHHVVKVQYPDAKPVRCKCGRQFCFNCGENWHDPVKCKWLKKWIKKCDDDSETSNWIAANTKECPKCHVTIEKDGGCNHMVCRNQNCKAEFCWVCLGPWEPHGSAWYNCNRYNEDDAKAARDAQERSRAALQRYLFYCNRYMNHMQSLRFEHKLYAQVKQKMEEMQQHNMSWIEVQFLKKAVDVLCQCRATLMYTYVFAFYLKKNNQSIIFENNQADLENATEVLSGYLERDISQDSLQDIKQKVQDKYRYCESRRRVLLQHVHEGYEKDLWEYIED
UniProt Q8N392, sequence (Q8N392 whole entry): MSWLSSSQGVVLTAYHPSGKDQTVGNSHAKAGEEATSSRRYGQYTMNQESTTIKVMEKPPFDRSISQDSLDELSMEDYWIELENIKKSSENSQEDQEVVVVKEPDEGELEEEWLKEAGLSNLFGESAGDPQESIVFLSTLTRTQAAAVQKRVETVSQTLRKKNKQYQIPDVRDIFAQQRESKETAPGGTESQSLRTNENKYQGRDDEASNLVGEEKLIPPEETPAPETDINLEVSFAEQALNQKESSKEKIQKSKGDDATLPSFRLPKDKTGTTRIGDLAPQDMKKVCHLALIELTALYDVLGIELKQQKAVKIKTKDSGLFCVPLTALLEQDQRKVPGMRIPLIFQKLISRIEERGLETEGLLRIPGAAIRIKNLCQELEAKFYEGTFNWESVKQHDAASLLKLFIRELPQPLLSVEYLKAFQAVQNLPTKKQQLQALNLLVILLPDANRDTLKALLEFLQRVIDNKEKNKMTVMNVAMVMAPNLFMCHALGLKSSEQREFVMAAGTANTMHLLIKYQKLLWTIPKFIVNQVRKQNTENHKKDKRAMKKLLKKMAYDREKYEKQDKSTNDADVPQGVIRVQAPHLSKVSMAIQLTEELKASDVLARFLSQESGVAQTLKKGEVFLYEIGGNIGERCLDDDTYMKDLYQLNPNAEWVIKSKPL
UniProt Q3SXY8, sequence (Q3SXY8 whole entry): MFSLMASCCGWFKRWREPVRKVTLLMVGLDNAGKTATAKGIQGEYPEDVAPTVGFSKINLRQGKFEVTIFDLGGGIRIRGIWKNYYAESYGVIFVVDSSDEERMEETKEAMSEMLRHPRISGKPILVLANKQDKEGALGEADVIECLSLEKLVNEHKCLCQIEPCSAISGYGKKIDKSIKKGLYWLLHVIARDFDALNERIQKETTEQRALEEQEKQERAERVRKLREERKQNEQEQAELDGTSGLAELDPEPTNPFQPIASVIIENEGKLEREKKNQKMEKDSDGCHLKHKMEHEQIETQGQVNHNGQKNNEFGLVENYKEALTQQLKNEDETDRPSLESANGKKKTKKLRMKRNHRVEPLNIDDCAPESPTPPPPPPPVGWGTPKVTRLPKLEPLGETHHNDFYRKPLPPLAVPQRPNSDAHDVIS
UniProt Q9NRY4, sequence (Q9NRY4 whole entry): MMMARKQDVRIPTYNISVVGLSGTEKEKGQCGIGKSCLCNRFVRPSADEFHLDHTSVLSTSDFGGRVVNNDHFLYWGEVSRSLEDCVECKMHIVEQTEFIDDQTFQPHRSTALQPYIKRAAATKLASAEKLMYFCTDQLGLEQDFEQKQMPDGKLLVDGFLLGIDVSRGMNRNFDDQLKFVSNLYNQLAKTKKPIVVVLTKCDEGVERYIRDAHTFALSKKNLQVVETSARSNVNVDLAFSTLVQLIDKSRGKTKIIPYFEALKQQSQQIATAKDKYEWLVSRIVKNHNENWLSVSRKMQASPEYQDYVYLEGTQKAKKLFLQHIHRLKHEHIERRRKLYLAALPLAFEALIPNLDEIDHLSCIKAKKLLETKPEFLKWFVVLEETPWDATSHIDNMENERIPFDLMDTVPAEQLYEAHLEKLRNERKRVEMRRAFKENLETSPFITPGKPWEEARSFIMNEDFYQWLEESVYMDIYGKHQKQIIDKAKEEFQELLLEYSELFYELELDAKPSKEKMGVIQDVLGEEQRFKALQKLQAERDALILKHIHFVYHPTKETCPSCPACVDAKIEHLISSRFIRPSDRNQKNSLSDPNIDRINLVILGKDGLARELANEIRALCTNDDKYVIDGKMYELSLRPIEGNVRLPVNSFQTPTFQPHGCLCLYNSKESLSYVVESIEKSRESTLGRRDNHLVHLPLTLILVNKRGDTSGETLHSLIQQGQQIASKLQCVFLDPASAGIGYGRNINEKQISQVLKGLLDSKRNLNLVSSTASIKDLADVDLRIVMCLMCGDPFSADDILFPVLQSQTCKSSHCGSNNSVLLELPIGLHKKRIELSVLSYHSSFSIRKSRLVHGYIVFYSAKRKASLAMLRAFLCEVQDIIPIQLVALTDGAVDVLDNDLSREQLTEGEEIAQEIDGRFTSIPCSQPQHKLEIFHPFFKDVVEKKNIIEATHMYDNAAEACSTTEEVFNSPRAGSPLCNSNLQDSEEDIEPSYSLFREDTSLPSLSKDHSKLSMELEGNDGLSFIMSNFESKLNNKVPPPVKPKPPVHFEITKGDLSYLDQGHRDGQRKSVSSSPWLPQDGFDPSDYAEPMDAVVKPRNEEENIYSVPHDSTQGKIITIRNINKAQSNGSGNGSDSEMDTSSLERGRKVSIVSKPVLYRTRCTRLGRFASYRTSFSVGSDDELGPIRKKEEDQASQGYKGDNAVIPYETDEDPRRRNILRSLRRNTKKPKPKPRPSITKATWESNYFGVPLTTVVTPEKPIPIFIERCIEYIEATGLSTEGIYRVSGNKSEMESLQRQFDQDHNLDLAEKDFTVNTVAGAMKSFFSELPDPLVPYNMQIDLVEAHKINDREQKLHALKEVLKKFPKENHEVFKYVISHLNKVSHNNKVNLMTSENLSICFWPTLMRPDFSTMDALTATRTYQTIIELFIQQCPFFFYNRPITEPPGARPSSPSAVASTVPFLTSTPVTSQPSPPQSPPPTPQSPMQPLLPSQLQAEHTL
UniProt O75915, sequence (O75915 whole entry): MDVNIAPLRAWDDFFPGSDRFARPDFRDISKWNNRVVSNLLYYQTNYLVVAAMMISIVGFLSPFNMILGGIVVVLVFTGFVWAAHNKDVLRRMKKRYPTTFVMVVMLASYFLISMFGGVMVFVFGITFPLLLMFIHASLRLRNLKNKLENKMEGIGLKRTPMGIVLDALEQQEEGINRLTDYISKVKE
UniProt P36404, sequence (P36404 whole entry): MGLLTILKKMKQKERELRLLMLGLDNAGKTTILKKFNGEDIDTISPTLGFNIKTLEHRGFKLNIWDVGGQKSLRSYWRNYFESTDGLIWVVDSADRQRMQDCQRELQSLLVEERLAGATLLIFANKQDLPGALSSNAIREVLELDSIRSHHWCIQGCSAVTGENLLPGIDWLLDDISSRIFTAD
UniProt Q9Y2Y0, sequence (Q9Y2Y0 whole entry): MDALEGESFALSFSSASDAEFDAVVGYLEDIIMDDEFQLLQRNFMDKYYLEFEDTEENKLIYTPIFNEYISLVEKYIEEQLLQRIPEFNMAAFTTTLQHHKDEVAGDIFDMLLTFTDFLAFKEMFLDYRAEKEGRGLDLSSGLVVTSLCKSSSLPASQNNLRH

| Target | thermal stability z-score (lipoamide; [1]) | thermal stability z-score (lipoamide; arsenate co-treatment: none) | thermal stability z-score (potassium arsenate) |
| --- | --- | --- | --- |
| ARHGAP18 (UniProt Q8N392) | 1.13 | 1.59 | 1.21 |
| ARHGAP21 (UniProt Q5T5U3) | -0.57 | -0.749 | -1.3 |
| ARHGAP27 (UniProt Q6ZUM4) | -0.103 | -0.156 | -0.309 |
| ARHGAP28 (UniProt Q9P2N2) | -0.114 | -0.103 | -0.0848 |
| ARHGAP29 (UniProt Q52LW3) | -0.215 | -0.998 | -1.28 |
| ARHGAP35 (UniProt Q9NRY4) | -0.512 | -0.145 | 0.128 |
| ARHGDIA (UniProt P52565) | 0.784 | 0.465 | 0.318 |
| ARHGDIB (UniProt P52566) | 0.0327 | -0.0579 | 0.0843 |
| ARHGEF1 (UniProt Q92888) | -0.381 | -0.242 | 0.0617 |
| ARHGEF2 (UniProt Q92974) | -0.182 | 0.0779 | 0.444 |
| ARHGEF5 (UniProt Q12774) | -0.685 | 0.596 | 0.214 |
| ARHGEF7 (UniProt Q14155) | -0.856 | -0.54 | -0.0377 |
| ARHGEF10 (UniProt O15013) | -0.746 | -0.324 | 0.964 |
| ARHGEF11 (UniProt O15085) | -0.0428 | 0.152 | 0.14 |
| ARHGEF12 (UniProt Q9NZN5) | -0.125 | -0.261 | 0.192 |
| ARHGEF16 (UniProt Q5VV41) | 0.251 | -0.0771 | -0.201 |
| ARHGEF18 (UniProt Q6ZSZ5) | -0.0633 | -0.00829 | -0.0508 |
| ARID1A (UniProt O14497) | 0.0489 | -0.0643 | -0.205 |

| Target | thermal stability z-score (lipoamide; [1]) | thermal stability z-score (lipoamide; arsenate co-treatment: none) | thermal stability z-score (potassium arsenate) |
| --- | --- | --- | --- |
| ARID2 (UniProt Q68CP9) | 0.136 | 0.254 | -0.234 |
| ARID4B (UniProt Q4LE39) | 0.0389 | 0.0738 | -0.419 |
| ARIH1 (UniProt Q9Y4X5) | -0.0195 | -0.0439 | -0.568 |
| ARIH2 (UniProt O95376) | 0.203 | -0.216 | -0.521 |
| ARL1 (UniProt P40616) | -0.148 | -0.943 | 0.669 |
| ARL2 (UniProt P36404) | -0.405 | -0.0766 | 0.664 |
| ARL2BP (UniProt Q9Y2Y0) | -0.0213 | 0.0527 | -0.326 |
| ARL3 (UniProt P36405) | -0.325 | -0.435 | -0.424 |
| ARL6 (UniProt Q9H0F7) | 0.197 | 0.233 | 0.202 |
| ARL6IP4 (UniProt Q66PJ3) | 0.727 | -0.0769 | 0.572 |
| ARL6IP5 (UniProt O75915) | -0.0796 | 0.285 | -0.256 |
| ARL8A (UniProt Q96BM9) | 0.375 | 0.0879 | 0.218 |
| ARL8B (UniProt Q9NVJ2) | -0.122 | -0.507 | -0.267 |
| ARL13B (UniProt Q3SXY8) | -0.415 | -0.29 | -1.37 |
| ARL14EP (UniProt Q8N8R7) | -0.0926 | -0.15 | -0.3 |
| ARMC1 (UniProt Q9NVT9) | 0.616 | 0.111 | 0.476 |
| ARMC6 (UniProt Q6NXE6) | -0.546 | -0.743 | 1.37 |
| ARMC8 (UniProt Q8IUR7) | -0.0708 | -0.238 | -0.668 |
